Assays:
Assay in all cases: relative viability (nuclei count vs DMSO), 5 days (fraction); higher = more cells survive
Tosedostat + Palbociclib = compound: CC(C)C[C@@H](C(=O)N[C@H](C(=O)OC1CCCC1)c1ccccc1)[C@H](O)C(=O)NO [Tosedostat] + CC(=O)c1c(C)c2cnc(Nc3ccc(N4CCNCC4)cn3)nc2n(C2CCCC2)c1=O [Palbociclib] (partner 0.5 µM)
Procedure, shortened: (§1)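 A single step with final 0.05% Triton X-100, 1% formaldehyde and 1 ug/ml Hoechst fixed the cells and stained nuclei 5 days after treatment. Lung cancer cell lines in 1536-well plates had been treated by pin tool the day after seeding with one drug alone or a fixed anchor-drug dose plus five library-drug doses (not always all listed) in √10 steps, and nuclei were counted on 4× images. Relative viability is the ratio of nuclei in treated wells to nuclei in vehicle wells, taken as the median of duplicate plates.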

Tosedostat + Alpelisib = compound: CC(C)C[C@@H](C(=O)N[C@H](C(=O)OC1CCCC1)c1ccccc1)[C@H](O)C(=O)NO [Tosedostat] + Cc1nc(NC(=O)N2CCC[C@H]2C(N)=O)sc1-c1ccnc(C(C)(C)C(F)(F)F)c1 [Alpelisib] (partner 2 µM)
Procedure, shortened: as §1

[1] = compound: CC1=NN=C(O1)C2=NN=C(C=C2)N3CCC(CC3)OC4=C(C=CC(=C4)F)Cl + Nc1nc2[nH]cc(CCc3ccc(C(=O)N[C@@H](CCC(=O)O)C(=O)O)cc3)c2c(=O)[nH]1 [Pemetrexed] (partner 0.2 µM)
Procedure, shortened: as §1

[2] = compound: CC1=NN=C(O1)C2=NN=C(C=C2)N3CCC(CC3)OC4=C(C=CC(=C4)F)Cl + CS(=O)(=O)N1CCN(Cc2cc3nc(-c4cccc5[nH]ncc45)nc(N4CCOCC4)c3s2)CC1 [Pictilisib] (partner 1 µM)
Procedure, shortened: as §1

Cell Line | relative viability (Tosedostat + Palbociclib; first compound 0.02 µM) | relative viability (Tosedostat + Palbociclib; first compound 0.06325 µM) | relative viability (Tosedostat + Palbociclib; first compound 0.2 µM) | relative viability (Tosedostat + Palbociclib; first compound 0.6325 µM) | relative viability (Tosedostat + Palbociclib; first compound 2 µM) | relative viability (Tosedostat + Alpelisib; first compound 0.02 µM) | relative viability (Tosedostat + Alpelisib; first compound 0.06325 µM) | relative viability (Tosedostat + Alpelisib; first compound 0.2 µM) | relative viability (Tosedostat + Alpelisib; first compound 0.6325 µM) | relative viability (Tosedostat + Alpelisib; first compound 2 µM) | relative viability ([1]; first compound 0.253 µM) | relative viability ([1]; first compound 0.8 µM) | relative viability ([1]; first compound 2.53 µM) | relative viability ([1]; first compound 8 µM) | relative viability ([2]; first compound 0.253 µM) | relative viability ([2]; first compound 0.8 µM) | relative viability ([2]; first compound 2.53 µM) | relative viability ([2]; first compound 8 µM)
NCI-H1437 | 0.355 | 0.32 | 0.357 | 0.353 | 0.38 | 0.984 | 1.05 | 0.969 | 0.828 | 0.506 | 0.24 | 0.282 | 0.232 | 0.218 | 0.556 | 0.426 | 0.447 | 0.386
SK-LU-1 | 0.429 | 0.401 | 0.467 | 0.341 | 0.4 | 1.19 | 0.981 | 0.772 | 0.842 | 0.491 | 1.03 | 0.9 | 0.867 | 0.829 | 0.518 | 0.508 | 0.529 | 0.42
NCI-H2347 | 0.411 | 0.451 | 0.407 | 0.494 | 0.4 | 1.14 | 0.971 | 1.01 | 1.02 | 1.03 | 0.422 | 0.406 | 0.442 | 0.39 | 0.024 | 0.53 | 0.422 | 0.753
BEN | 0.454 | 0.463 | 0.537 | 0.497 | 0.465 | 1.09 | 1.01 | 1.15 | 1.28 | 1.26 | 0.736 | 0.84 | 0.806 | 0.741 | 0.571 | 0.62 | 0.68 | 0.584
LCLC-103H | 0.447 | 0.483 | 0.456 | 0.504 | 0.486 | 0.896 | 0.95 | 0.948 | 1.11 | 1.07 | 0.435 | 0.418 | 0.403 | 0.409 | 0.556 | 0.479 | 0.567 | 0.473
EKVX | 0.368 | 0.374 | 0.403 | 0.396 | 0.389 | 0.868 | 0.86 | 0.835 | 0.838 | 0.87 | 0.269 | 0.263 | 0.343 | 0.348 | 0.323 | 0.31 | 0.388 | 0.345
PC-3 [JPC-3] | 0.538 | 0.547 | 0.554 | 0.493 | 0.555 | 1.03 | 1.03 | 1.06 | 0.924 | 0.727 | 1.05 | 0.816 | 1.06 | 0.791 | 0.602 | 0.677 | 0.84 | 0.654
NCI-H23 | 0.509 | 0.494 | 0.521 | 0.37 | 0.428 | 0.615 | 0.745 | 0.536 | 0.513 | 0.538 | 0.669 | 0.543 | 0.698 | 0.622 | 0.466 |  | 0.527 | 0.463
NCI-H1793 | 0.302 | 0.325 | 0.339 | 0.293 | 0.375 | 0.691 | 0.851 | 0.567 | 0.649 | 0.673 | 0.843 | 0.835 | 0.977 | 0.79 | 0.307 | 0.312 | 0.31 | 0.347
LC-2-ad | 0.49 | 0.496 | 0.525 | 0.446 | 0.529 | 0.932 | 0.885 | 0.852 | 0.889 | 0.74 | 0.267 | 0.27 | 0.282 | 0.239 | 0.423 | 0.416 | 0.4 | 0.386
COR-L 105 | 0.402 | 0.43 | 0.398 | 0.357 | 0.392 | 0.904 | 0.849 | 1.17 | 0.901 | 0.753 | 1.2 | 1.07 | 1.18 | 1.29 | 0.426 | 0.405 | 0.334 | 0.378
H3255 | 0.303 | 0.32 | 0.342 | 0.331 | 0.319 | 0.666 | 0.642 | 0.589 | 0.568 | 0.663 | 0.506 | 0.533 | 0.518 | 0.577 | 0.505 | 0.438 | 0.433 | 0.397
NCI-H2087 | 0.247 | 0.288 | 0.233 | 0.207 | 0.22 | 1.21 | 1.08 | 1.21 | 0.876 | 0.91 | 0.561 | 0.534 | 0.511 | 0.47 | 0.769 | 0.604 | 0.795 | 0.66
NCI-H1915 | 0.41 | 0.512 | 0.554 | 0.523 | 0.495 | 1.1 | 1.05 | 1.04 | 1.07 | 0.907 | 0.376 | 0.232 | 0.3 | 0.235 | 0.763 | 0.586 | 0.698 | 0.563
HOP-62 | 0.478 | 0.467 | 0.463 | 0.462 | 0.439 | 0.92 | 1.01 | 0.697 | 0.984 | 0.744 | 0.315 | 0.318 | 0.231 | 0.17 | 0.652 |  | 0.645 | 0.331
LU99A | 0.428 | 0.449 | 0.476 | 0.376 | 0.325 | 0.633 | 0.445 | 0.501 | 0.486 | 0.477 | 0.149 | 0.18 | 0.162 | 0.164 | 0.303 | 0.327 | 0.304 | 0.34
NCI-H3122 | 0.195 | 0.211 | 0.216 | 0.22 | 0.249 | 0.861 | 0.809 | 0.844 | 0.774 | 0.997 | 0.138 | 0.142 | 0.16 | 0.143 | 0.643 | 0.593 | 0.648 | 0.642
